Data published in patent US20240368168A1, “SARM1 ENZYME ACTIVITY INHIBITOR AND APPLICATION THEREOF” (ARTIVILA BIOPHARMA, priority 2021, published 2024).

How the values were obtained:
[1] = molecular target: T1, dN-SARM1 protein (Homo sapiens, UniProt Q6SZW1); assay: In vitro biochemical assay for inhibiting SARM1 enzymatic activity (% inhibition rate), PC6 fluorescence method; conditions: 20 μM compound; 50 μM NAD, 50 μM PC6, 50 μM NMN activator
T1 construct: the N-terminal mitochondrial localization signal peptide of SARM1 was removed
T1 sequence (Q6SZW1 28-724): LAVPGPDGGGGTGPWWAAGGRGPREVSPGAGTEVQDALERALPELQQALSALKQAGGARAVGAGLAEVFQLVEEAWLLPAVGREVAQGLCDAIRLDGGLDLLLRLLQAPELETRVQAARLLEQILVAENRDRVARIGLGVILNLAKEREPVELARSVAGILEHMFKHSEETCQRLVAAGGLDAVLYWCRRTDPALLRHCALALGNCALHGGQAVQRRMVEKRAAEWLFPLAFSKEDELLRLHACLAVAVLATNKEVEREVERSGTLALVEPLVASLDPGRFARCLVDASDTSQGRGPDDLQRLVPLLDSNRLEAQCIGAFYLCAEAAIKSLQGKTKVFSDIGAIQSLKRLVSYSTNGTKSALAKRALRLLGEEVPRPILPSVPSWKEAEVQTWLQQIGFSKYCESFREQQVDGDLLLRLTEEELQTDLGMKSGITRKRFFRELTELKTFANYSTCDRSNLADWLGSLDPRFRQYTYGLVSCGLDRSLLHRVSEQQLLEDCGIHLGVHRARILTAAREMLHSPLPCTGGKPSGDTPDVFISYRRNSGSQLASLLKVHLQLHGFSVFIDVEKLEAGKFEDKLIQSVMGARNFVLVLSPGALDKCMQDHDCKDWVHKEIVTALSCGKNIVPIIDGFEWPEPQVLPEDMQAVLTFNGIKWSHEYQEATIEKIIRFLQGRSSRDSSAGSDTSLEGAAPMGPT
Protocol: The compounds were subjected to PC6 fluorescence method measurement [Chinese Patent 202010528147.3] using the dN-SARM1 protein obtained through “(4) Protein extraction” in “Expression and purification of SARM1 protein” in the above biological activity example 1.
First, 0.05 μg/ml dN-SARM1 and 20 μM compound were incubated in 50 mM Tris-HCl (pH 7.5) solution for 10 min, and then added with 50 μM NAD and 50 μM PC6 as substrate and 50 μM NMN as activator for 30 minutes of reaction at room temperature. The concentration of each component was the final concentration in the reaction system.
During the reaction, PC6 fluorescence spectrum dynamics were detected by a microplate reader, wherein the excitation wavelength and emission wavelength for detection were 390 nm and 520 nm, respectively. Finally, the reaction rate was used to express the activity of the protein. The higher the reaction rate, the stronger the activity of the protein and the lower the inhibitory efficiency of the compound.

[2] = molecular target: T1, dN-SARM1 protein; assay: In vitro biochemical assay for inhibiting SARM1 enzymatic activity (IC50), PC6 fluorescence method; conditions: 50 μM NAD, 50 μM PC6, 50 μM NMN activator
In short: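 Activity read as the rate of PC6 fluorescence change (390 nm excitation, 520 nm emission) over a 30 min room-temperature reaction containing final 50 μM each of NAD, PC6 and NMN activator. Enzyme, 0.05 μg/ml dN-SARM1 in 50 mM Tris-HCl pH 7.5, first incubated 10 min with compound diluted serially from 200 μM; IC50 calculated.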

[3] = molecular target: T2, SARM1 protein in iSARM1 (HEK293) cells (Homo sapiens, UniProt Q6SZW1); assay: Inhibitory activity in inducible SARM1 overexpressing cell line, intracellular cADPR level; type: cell-based; conditions: activator CZ-48 100 μM, cADPR content
T2 construct: The full-length SARM1 was synthesized into the pUC57 plasmid by WZ Biosciences Inc., and PCR was performed using pUC57-SARM1 as a DNA template
T2 sequence (Q6SZW1 28-724): T1 sequence (Q6SZW1 28-724)
In short: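 Inducible SARM1-overexpressing HEK293 cells preincubated 1.5 h with inhibitor (50 μM final), then activated with 100 μM CZ-48 for 16 h. Intracellular cADPR extracted with perchloric acid, NAD+ removed by NADase, and quantified by cyclase-coupled resazurin cycling assay (Ex/Em 544/599, 30 min kinetics) against cADPR standards; inhibition rate and IC50 calculated.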

| SMILES | inhibition at 20 µM [1] [%] | IC50 [2] [nM] | EC50 [3] [nM] |
| --- | --- | --- | --- |
| CN(C(=O)OC(C)(C)C)c1ccc2ncc(-c3ccc(N)cc3)n2c1 [Compound 40] | > 90 | 1000 to 10000 | 1000 to 10000 |
| CC(C)(C)OC(=O)Nc1ccc2ncc(I)n2c1 [Compound 44] | 50 to 89 | 1000 to 10000 | 1000 to 10000 |
| CC(C)(C)OC(=O)Nc1ccc2ncc(-c3cccc(N)c3)n2c1 [Compound 46] | > 90 | 1000 to 10000 | – |
| CN(C(=O)OC(C)(C)C)c1ccc2ncc(-c3cccc(NC(=O)C4CCOCC4)c3)n2c1 [Compound 49] | > 90 | 1000 to 10000 | < 1000 |
| COCCOCC(=O)Nc1ccc(-c2cnc3ccc(N(C)C(=O)OC(C)(C)C)cn23)cc1 [Compound 50] | > 90 | 1000 to 10000 | 1000 to 10000 |
| COCCOCC(=O)Nc1cccc(-c2cnc3ccc(C)cn23)c1 [Compound 53] | > 90 | 1000 to 10000 | – |
| CC(C)(C)Oc1ccc2ncc(-c3cccc(NC(=O)C4CCOCC4)c3)n2c1 [Compound 55] | > 90 | 1000 to 10000 | – |
| c1ccc(Nc2ccc3ncc(-c4ccccc4)n3c2)cc1 [Compound 75] | > 90 | 1000 to 10000 | < 1000 |
| CNc1ccc2ncc(-c3cccc(NC(=O)COCCOC)c3)n2c1 [Compound 77] | > 90 | 1000 to 10000 | – |
| CC(C)(C)OC(=O)N(c1ccccc1)c1ccc2ncc(-c3ccccc3)n2c1 [Compound 90] | > 90 | 1000 to 10000 | 1000 to 10000 |
| COCCOCCNS(=O)(=O)c1cccc(-c2cnc3ccc(N(C)C(=O)OC(C)(C)C)cn23)c1 [Compound 108, tert-butyl (3-(3-(N-(2-(2-methoxyethoxy)ethyl)sulfamoyl)phenyl)imidazo[1,2-a]pyridin-6-yl)(methyl)carbamate] | 50 to 89 | 1000 to 10000 | – |
| COC(=O)c1csc(-c2cnc3ccc(NC(=O)OC(C)(C)C)cn23)c1 [Compound 124, methyl 5-(6-((tert-butoxycarbonyl)amino)imidazo[1,2-a]pyridin-3-yl)thiophene-3-carboxylate] | > 90 | 1000 to 10000 | – |
| CC(C)(C)OC(=O)Nc1ccc2ncc(-c3cc(C(=O)NC4CCOCC4)cs3)n2c1 [Compound 125, tert-butyl (3-(4-((tetrahydro-2H-pyran-4-yl)carbamoyl)thiophen-2-yl)imidazo[1,2-a]pyridin-6-yl) carbamate] | > 90 | 1000 to 10000 | – |
| COCCOCC(=O)Nc1cccc(-c2cnc3ccc(N)cn23)c1 [Compound 128, N-(3-(6-aminoimidazo[1,2-a]pyridin-3-yl)phenyl)-2-(2-methoxyethoxy)acetamide] | > 90 | 1000 to 10000 | – |
| COCCOCC(=O)Nc1cccc(-c2cnc3ccc(NC(=O)COC)cn23)c1 [Compound 131] | > 90 | 1000 to 10000 | – |
| CN(C(=O)OC(C)(C)C)c1ccc2ncc(-c3cccc(C(=O)O)c3)n2c1 [Compound 132, 3-(6-((tert-butoxycarbonyl)(methyl)amino)imidazo[1,2-a]pyridin-3-yl)benzoic acid] | > 90 | 1000 to 10000 | – |
| CC(C)(C)OC(=O)NCc1ccc2ncc(I)n2c1 [Compound 143] | > 90 | 1000 to 10000 | – |
| COCCOCC(=O)Nc1cccc(-c2cnc3ccc(CNC(=O)C(C)(C)C)cn23)c1 [Compound 146] | > 90 | 1000 to 10000 | – |
| CN(C(=O)OC(C)(C)C)c1ccc2ncc(-c3cccc(NC(=O)C4CCOC4)c3)n2c1 (centres unmarked) [Compound 149] | > 90 | 1000 to 10000 | – |
| CN(C(=O)OC(C)(C)C)c1ccc2ncc(-c3cccc(NC(=O)C4COC4)c3)n2c1 [Compound 150] | > 90 | 1000 to 10000 | – |
| CCOC(=O)CCC(=O)Nc1cccc(-c2cnc3ccc(N(C)C(=O)OC(C)(C)C)cn23)c1 [Compound 151] | > 90 | 1000 to 10000 | – |
| CN(C(=O)OC(C)(C)C)c1ccc2ncc(-c3cccc(NC(=O)NC[C@@H]4CCO4)c3)n2c1 [Compound 152] | > 90 | 1000 to 10000 | – |
| CNc1ccc2ncc(-c3cccc(OCCOCCOC)c3)n2c1 [Compound 153] | > 90 | 1000 to 10000 | – |

Results, then the molecule that gave them:

| inhibition at 20 µM [1] [%] | IC50 [2] [nM] | EC50 [3] [nM] | SMILES |
| --- | --- | --- | --- |
| 50 to 89 | < 1000 | 1000 to 10000 | CNc1ccc2ncc(-c3ccccc3)n2n1 [Compound 20] |
| > 90 | 1000 to 10000 | 1000 to 10000 | FC(F)(F)c1ccc2ncc(-c3ccccc3)n2c1 [Compound 25] |
| > 90 | 1000 to 10000 | 1000 to 10000 | c1cn2cc(N3CCOCC3)ccc2n1 [Compound 32] |
| > 90 | 1000 to 10000 | 1000 to 10000 | Brc1cnc2ccc(N3CCOCC3)cn12 [Compound 33] |
| > 90 | 1000 to 10000 | 1000 to 10000 | c1ccc(-c2cnc3ccc(N4CCOCC4)cn23)cc1 [Compound 34] |
| > 90 | < 1000 | – | Cc1ccc2ncc(-c3cccc(NC(=O)C4CCOCC4)c3)n2c1 [Compound 54] |
| > 90 | < 1000 | – | COCCOCC(=O)Nc1cccc(-c2cnc3ccc(N4CCOCC4)cn23)c1 [Compound 56] |
| > 90 | < 1000 | – | O=C(Nc1cccc(-c2cnc3ccc(N4CCOCC4)cn23)c1)C1CCOCC1 [Compound 57] |
| 50 to 89 | < 1000 | – | COCCOCC(=O)Nc1cccc(-c2cnc3ccc(NC(=O)OC(C)(C)C)cn23)c1 [Compound 58, tert-butyl (3-(3-(2-(2-methoxyethoxy)acetamido)phenyl)imidazo[1,2-a]pyridin-6-yl)carbamate] |
| > 90 | < 1000 | 1000 to 10000 | CNc1ccc2ncc(-c3cccc(NC(=O)COCCOCC(=O)Nc4cccc(-c5cnc6ccc(NC)cn56)c4)c3)n2c1 [Compound 78] |
| > 90 | < 1000 | 1000 to 10000 | CNc1ccc2ncc(-c3cccc(NC(=O)COCCOCCOCC(=O)Nc4cccc(-c5cnc6ccc(NC)cn56)c4)c3)n2c1 [Compound 79] |
| > 90 | < 1000 | – | CN(C)c1ccc2ncc(-c3ccccc3)n2n1 [Compound 94, N,N-dimethyl-3-phenylimidazo[1,2-b]pyridazin-6-amine] |
| > 90 | < 1000 | – | CNc1ccc2ncc(-c3cccc(S(=O)(=O)NC4CCOCC4)c3)n2c1 [Compound 110, 3-(6-(methylamino)imidazo[1,2-a]pyridin-3-yl)-N-(tetrahydro-2H-pyran-4-yl)benzenesulfonamide] |
| > 90 | < 1000 | – | CNc1ccc2ncc(-c3cccc(C(=O)NCCOCCOC)c3)n2c1 [Compound 134] |
| > 90 | < 1000 | – | CNc1ccc2ncc(-c3cccc(C(=O)NC4CCOCC4)c3)n2c1 [Compound 136] |
| > 90 | < 1000 | – | CC(C)(C)OC(=O)NCc1ccc2ncc(-c3cccc(N)c3)n2c1 [Compound 144] |
| > 90 | < 1000 | – | COCCOCC(=O)Nc1cccc(-c2cnc3ccc(CNC(=O)OC(C)(C)C)cn23)c1 [Compound 145] |
| > 90 | < 1000 | – | CNc1ccc2ncc(-c3cccc(OCC4CCOCC4)c3)n2c1 [Compound 154] |
